Assay results as given in patent US20220338473A1, “USE OF BENZYL ALCOHOL AS A HERBICIDE” (INNOVI, priority 2019, published 2022).

How the values were obtained:
Format in all cases: in vivo
[1] = test system: Hypoestes; assay: Systemic application through contact with the above-ground parts (half of plant treated); settings: potted, only one half sprayed, 1 g benzyl alcohol (50 L/Ha) in 8 g total (400 L/Ha)
Procedure: (§1) Assays were carried out on different plants by treatment on a fraction of the above-ground parts.
(§2) The assays were carried out on potted plants.
(§3) The systemic action was evaluated on several types of plants by treatment on a fraction of its above-ground parts.
(§4) The application of the product is carried out with a trigger spray bottle which makes it possible to spray 1 g of product per spraying, as microdroplets.
(§5) The treated plants are sprinkled on only one half, with different quantities of water comprising different quantities of pure benzyl alcohol (PanReac AppliChem—ITW Reagents). The untreated (control) plants are sprinkled with the same total quantity, but of water only.
(§6) The collapsing of the plant, the colour intensity and the diameter of the plant were measured as indicated in Example 1. The systemic effectiveness time was also measured in the following manner: • Systemic effectiveness time: 50% of the plant is initially treated with the product. The time necessary to see the first effects (systemically) appear on the part not treated (systemically) is determined.

[2] = test system: Horned pansy; assay: as above; settings: potted, only one half sprayed, 0.1 g benzyl alcohol (5 L/Ha) in 12 g total (600 L/Ha)
Procedure: as §1, §2, §3, §4, §5, §6

[3] = test system: White petunia; assay: as above; settings: potted, only one half sprayed, 10 g benzyl alcohol (500 L/Ha) in 16 g total (800 L/Ha)
Procedure: as §1, §2, §3, §4, §5, §6

[4] = test system: Osteospermum; assay: as above; settings: potted, only one half sprayed, 2 g benzyl alcohol (100 L/Ha) in 2 g total (100 L/Ha)
Procedure: as §1, §2, §3, §4, §5, §6

[5] = test system: Carnation; assay: as above; settings: potted, only one half sprayed, 4 g benzyl alcohol (200 L/Ha) in 4 g total (200 L/Ha)
Procedure: as §1, §2, §3, §4, §5, §6

[6] = test system: Grass; assay: as above; settings: potted, only one half sprayed, 16 g benzyl alcohol (800 L/Ha) in 20 g total (1000 L/Ha)
Procedure: as §1, §2, §3, §4, §5, §6

[7] = test system: Brambles; assay: Non-selective activity on brambles (spraying, potted); settings: 12 g pure benzyl alcohol (600 L/Ha) in 16 g product (800 L/Ha)
Procedure: as §2
The application of the product is carried out with a trigger spray bottle which makes it possible to spray 1 g of product per spraying, as microdroplets. The treated plants are sprinkled with different quantities of water comprising different quantities of pure benzyl alcohol (PanReac AppliChem—ITW Reagents). The untreated (control) plants are sprinkled with the same total quantity of water only.
The brambles are sprinkled with: • 16 g of product (equivalent to 800 L/Ha) including 12 g pure benzyl alcohol for the treated plant (equivalent to 600 L/Ha pure benzyl alcohol), and • 16 g water for the control plants.
The collapsing of the plant, the colour intensity and the diameter of the plant were measured as indicated in Example 1.

Compound: OCc1ccccc1 [benzyl alcohol]
- A: systemic effectiveness time (whole plant affected) [1]: at 96 h
- B: collapsing (score and time): time to pass from score 5 (T0) to score 1 [1]: 120 h
- C: colour intensity (score and time): time to pass from score 5 (T0) to score 1 [1]: 120 h
- D: diameter (score and time): time to pass from score 5 (T0) to score 1 [1]: 144 h
- A: systemic effectiveness time (whole plant affected) [2]: at 120 h
- B: collapsing (score and time): time to pass from score 5 (T0) to score 1 [2]: 168 h
- C: colour intensity (score and time): time to pass from score 5 (T0) to score 1 [2]: 144 h
- D: diameter (score and time): time to pass from score 5 (T0) to score 1 [2]: 168 h
- A: systemic effectiveness time (whole plant affected) [3]: at 24 h
- B: collapsing (score and time): time to pass from score 5 (T0) to score 1 [3]: 48 h
- C: colour intensity (score and time): time to pass from score 5 (T0) to score 1 [3]: 48 h
- D: diameter (score and time): time to pass from score 5 (T0) to score 1 [3]: 48 h
- A: systemic effectiveness time (whole plant affected) [4]: at 96 h
- B: collapsing (score and time): time to pass from score 5 (T0) to score 1 [4]: 144 h
- C: colour intensity (score and time): time to pass from score 5 (T0) to score 1 [4]: 120 h
- D: diameter (score and time): time to pass from score 5 (T0) to score 1 [4]: 144 h
- A: systemic effectiveness time (whole plant affected) [5]: at 72 h
- B: collapsing (score and time): time to pass from score 5 (T0) to score 1 [5]: 86 h
- C: colour intensity (score and time): time to pass from score 5 (T0) to score 1 [5]: 96 h
- D: diameter (score and time): time to pass from score 5 (T0) to score 1 [5]: 120 h
- A: systemic effectiveness time (whole plant affected) [6]: at 96 h
- B: collapsing (score and time): time to pass from score 5 (T0) to score 1 [6]: 144 h
- C: colour intensity (score and time): time to pass from score 5 (T0) to score 1 [6]: 120 h
- D: diameter (score and time): time to pass from score 5 (T0) to score 1 [6]: 168 h
- Collapsing: time to pass from a score of 5 to a score of 1 [7]: 144 h
- Colour intensity: time to pass from a score of 5 to a score of 1 [7]: 96 h
